These results are taken from patent US20240245673A1, “Papain-like protease (PLpro) inhibitors” (Pfizer Inc., priority 2022, published 2024).

SMILES strings stand for the structures.

One assay addresses SARS-CoV-2 Papain like protease (PLpro) (Severe acute respiratory syndrome coronavirus 2 (2019-nCoV) (SARS-CoV-2), UniProt P0DTD1). The assay is described as follows: Papain Like Protease (PLpro) biochemical assay with profluorogenic substrate Z-RLRGG-AMC. To be noted: IC50 (μM), SARS-CoV-2 PLpro 6.25 nM, 25 μM Z-RLRGG-AMC substrate, 60 minute reaction.
The compound `Cc1cnc(N2CC3CCC(C2)N3)cc1C(=O)NC1(c2cc(-c3cnn(C)c3)nc3ccccc23)CC1` [Example 285, 2-(3,8-diazabicyclo[3.2.1]octan-3-yl)-5-methyl-N-(1-(2-(1-methyl-1H-pyrazol-4-yl)quinolin-4-yl)cyclopropyl)isonicotinamide] displayed an IC50 of 0.003 µM.

The assay is the same for the next values; noted with them: SARS-CoV-2 PLpro 6.25 nM, 25 μM Z-RLRGG-AMC substrate, 60 minute reaction; read-out: IC50.
Regarding `Cc1ccccc1C(=O)NC(C)c1cc(-c2cncc(F)c2)nc2ccccc12` (stereo not drawn) [Example 137, N-{1-[2-(5-fluoropyridin-3-yl)quinolin-4-yl]ethyl}-2-methylbenzamide], the IC50 came to 1.13 µM.

On to `Cc1ccc(NC(=O)[C@H]2CCCCN2)cc1C(=O)NC(C)c1cc(-c2ccn[nH]2)cc2ccccc12` (mixture of isomers) [Example 65, (2R)-N-(3-((1-(3-(1H-pyrazol-5-yl)naphthalen-1-yl)ethyl)carbamoyl)-4-methylphenyl)piperidine-2-carboxamide], for which the IC50 was 0.021 µM. As to `Cc1cc(CSCc2nccn2C)ccc1C(=O)N[C@H](C)c1cc(-c2cnn(C)c2)nc2ccccc12` [Example 282, (R)-2-methyl-4-((((1-methyl-1H-imidazol-2-yl)methyl)thio)methyl)-N-(1-(2-(1-methyl-1H-pyrazol-4-yl)quinolin-4-yl)ethyl)benzamide], the IC50 is 0.006 µM. Same read-out and setting: with `Cc1cc(COCc2cscn2)ccc1C(=O)NC1(c2cc(-c3cc(C(N)=O)n[nH]3)nc3ccccc23)CC1` [Example 349, 5-(4-(1-(2-methyl-4-((thiazol-4-ylmethoxy)methyl)benzamido)cyclopropyl)quinolin-2-yl)-1H-pyrazole-3-carboxamide] the figure was < 0.001 µM. Consider `Cc1ccccc1C(=O)NC(C)c1cc(NCc2cocn2)nc2ccccc12` (stereo not drawn) [Example 138, 2-methyl-N-[1-(2-{[(1,3-oxazol-4-yl)methyl]amino}-quinolin-4-yl)ethyl]benzamide], for which the IC50 is 0.944 µM.

Turning to `Cc1ccc(CN)cc1C(=O)NC(C)c1cc(-c2cnn(C)c2)cc2ccccc12` (stereo not drawn) [Example 3, 5-(aminomethyl)-2-methyl-N-(1-(3-(1-methyl-1H-pyrazol-4-yl)naphthalen-1-yl)ethyl)benzamide], the half-inhibitory concentration (IC50) came out at 0.048 µM.

Turning to `Cc1ccc(N2CCC3(CCCCN3)C2=O)cc1C(=O)N[C@H](C)c1cc(-c2cnn(C)c2)nc2ccccc12` (stereo partly drawn) [Example 240], the IC50 was 0.026 µM. Consider `COCCn1nc(C)c(-c2cc(C(C)NC(=O)c3ccccc3C)c3ccccc3n2)c1C` (stereo not drawn) [Example 121, N-(1-{2-[1-(2-methoxyethyl)-3,5-dimethyl-1H-pyrazol-4-yl]quinolin-4-yl}ethyl)-2-methylbenzamide], for which the 50% inhibitory concentration (IC50) was found to be 1.42 µM. Same read-out and setting: next, `Cc1cc(C(NCc2cscn2)C(F)(F)F)ccc1C(=O)N[C@H](C)c1cc(-c2cnn(C)c2)nc2ccccc12` (stereo partly drawn) [Example 310, 2-methyl-N-((R)-1-(2-(1-methyl-1H-pyrazol-4-yl)quinolin-4-yl)ethyl)-4-(2,2,2-trifluoro-1-((thiazol-4-ylmethyl)amino)ethyl)benzamide]: 0.003 µM; `Cc1cc(COCc2cscn2)ccc1C(=O)NC1(c2cc(-c3cnn(C)c3)cc3nc(C(C)(C)O)ccc23)CC1` [Example 354, N-(1-(2-(2-hydroxypropan-2-yl)-7-(1-methyl-1H-pyrazol-4-yl)quinolin-5-yl)cyclopropyl)-2-methyl-4-((thiazol-4-ylmethoxy)methyl)benzamide]: < 0.001 µM. `Cc1ccc(N2CCN(C)CC2)cc1C(=O)NC(C)c1cc(-c2cnn(C)c2)cc2ccccc12` (stereo not drawn) [Example 73, 2-methyl-N-(1-(3-(1-methyl-1H-pyrazol-4-yl)naphthalen-1-yl)ethyl)-5-(4-methylpiperazin-1-yl)benzamide]: the IC50 turned out to be 0.022 µM.

As for `Cc1cc(COCc2cscn2)ccc1C(=O)NC1(c2cc(-c3cc(C(=O)N(C)CC(C)(C)O)n[nH]3)nc3ccccc23)CC1` [Example 357, N-(2-hydroxy-2-methylpropyl)-N-methyl-5-(4-(1-(2-methyl-4-((thiazol-4-ylmethoxy)methyl)benzamido)cyclopropyl)quinolin-2-yl)-1H-pyrazole-3-carboxamide], the IC50 was < 0.001 µM. Turning to `Cc1cc(COCc2cocn2)ccc1C(=O)NC1(c2cc(-c3cc(C(=O)N(C)C)n[nH]3)cc3ncccc23)CC1` [Example 350, N,N-dimethyl-5-(5-(1-(2-methyl-4-((oxazol-4-ylmethoxy)methyl)benzamido)cyclopropyl)quinolin-7-yl)-1H-pyrazole-3-carboxamide], the IC50 was < 0.001 µM.

For `Cc1ccc(N2CC3CC2CN3C)cc1C(=O)N[C@H](C)c1cc(-c2cnn(C)c2)nc2ccccc12` (stereo partly drawn) [Example 256, 2-methyl-N-((R)-1-(2-(1-methyl-1H-pyrazol-4-yl)quinolin-4-yl)ethyl)-5-(5-methyl-2,5-diazabicyclo[2.2.1]heptan-2-yl)benzamide], the IC50 amounted to 0.015 µM.

In the case of `COCCn1cc(-c2cc(C(C)NC(=O)c3ccccc3C)c3ccccc3n2)cn1` (stereo not drawn) [Example 112, N-(1-{2-[1-(2-methoxyethyl)-1H-pyrazol-4-yl]quinolin-4-yl}ethyl)-2-methylbenzamide], the concentration for half-maximal inhibition (IC50) was found to be 0.294 µM.

For `Cc1ccc2c(C3(NC(=O)c4ccc(COCc5cocn5)cc4C)CC3)cc(-c3cnn(C)c3)cc2n1` [Example 348, 2-methyl-N-(1-(2-methyl-7-(1-methyl-1H-pyrazol-4-yl)quinolin-5-yl)cyclopropyl)-4-((oxazol-4-ylmethoxy)methyl)benzamide], the IC50 was < 0.001 µM.

Take `Cc1ccccc1C(=O)NC(C)c1cc(-c2cncnc2)nc2ccccc12` (stereo not drawn) [Example 130, 2-methyl-N-{1-[2-(pyrimidin-5-yl)quinolin-4-yl]ethyl} benzamide]: the IC50 was 3.1 µM. Consider `CNC(=O)/C=C/C(=O)NNC(=O)CCc1ccccc1C(=O)N[C@H](C)c1cc(-c2cnn(C)c2)nc2ccccc12` [Example 223, (R,E)-N-(1-(2-(1-methyl-1H-pyrazol-4-yl)quinolin-4-yl)ethyl)-2-(3-(2-(4-(methylamino)-4-oxobut-2-enoyl)hydrazineyl)-3-oxopropyl)benzamide], for which the IC50 was 0.058 µM.

Take `Cc1ccccc1C(=O)NC(C)c1cc(-c2cnn3cccnc23)nc2ccccc12` (stereo not drawn) [Example 131, 2-methyl-N-{1-[2-(pyrazolo [1,5-a]pyrimidin-3-yl)quinolin-4-yl]ethyl}benzamide]: the IC50 worked out at 2.91 µM.

With `Cc1cc(COCc2ncsc2CO)ccc1C(=O)NC1(c2cc(-c3cnn(C)c3)nc3ccccc23)CC1` [Example 330, 4-(((5-(hydroxymethyl)thiazol-4-yl)methoxy)methyl)-2-methyl-N-(1-(2-(1-methyl-1H-pyrazol-4-yl)quinolin-4-yl)cyclopropyl)benzamide], the IC50 was < 0.001 µM.

For the compound `COCc1cc(-c2cc(C(C)NC(=O)c3ccccc3C)c3ccccc3n2)cs1` (stereo not drawn) [Example 106, N-(1-{2-[5-(methoxymethyl)thiophen-3-yl]quinolin-4-yl}ethyl)-2-methylbenzamide], the IC50 worked out at 0.241 µM. With `Cc1cc(C(=O)NCc2nccn2C)ccc1C(=O)NC1(c2cc(-c3cnn(C)c3)nc3ccccc23)CC1` [Example 253], the IC50 came out at 0.006 µM. On to `Cc1cc(CNC(=O)c2ncc[nH]2)ccc1C(=O)NC(C)c1cc(-c2cnn(C)c2)cc2ccccc12` (stereo not drawn) [Example 62, N-(3-methyl-4-((1-(3-(1-methyl-1H-pyrazol-4-yl)naphthalen-1-yl)ethyl)carbamoyl)benzyl)-1H-imidazole-2-carboxamide], for which the IC50 came out at 0.039 µM.
